According to US9850283B2, “Macrocyclic inhibitors of the PD-1/PD-L1 and CD80(B7-1)/PD-L1 protein/protein interactions” (BRISTOL-MYERS SQUIBB COMPANY, priority 2013, dated 2017):
pIC50: −log10 of the molar value. Like-named read-outs stand apart in the source and are kept apart here. Positions of bridges follow the written chain, without caps; N, C: chain ends. Non-standard residues stand in square brackets, D forms with d. Residues, ends and D or L forms follow the SMILES beside them. Phe(4-CF3) = N[C@@H](Cc1ccc(C(F)(F)F)cc1)C(=O)O; Phe(F5) = N[C@@H](Cc1c(F)c(F)c(F)c(F)c1F)C(=O)O; Ala(4-thiazolyl) = N[C@@H](Cc1cscn1)C(=O)O; Phe(3-Cl) = N[C@@H](Cc1cccc(Cl)c1)C(=O)O; Phe(3-OMe) = COc1cccc(C[C@H](N)C(=O)O)c1; Phe(4-Br) = N[C@@H](Cc1ccc(Br)cc1)C(=O)O; Phe(4-Me) = Cc1ccc(C[C@H](N)C(=O)O)cc1; NMeF = CN[C@@H](Cc1ccccc1)C(=O)O; hPhe = N[C@@H](CCc1ccccc1)C(=O)O; NMeNle = CCCC[C@H](NC)C(=O)O; Sar = CNCC(=O)O

Legend:
Human PD-L1/PD-1 = target: T1, Human PD-L1/PD-1 (Homo sapiens, UniProt Q9NZQ7); experiment: HTRF PD-1-Ig/PD-L1-His binding assay (human PD-L1)
T1 construct: made in house; host or cells: HEK293T
T1 sequence (Q9NZQ7 with tags, fused parts or gaps): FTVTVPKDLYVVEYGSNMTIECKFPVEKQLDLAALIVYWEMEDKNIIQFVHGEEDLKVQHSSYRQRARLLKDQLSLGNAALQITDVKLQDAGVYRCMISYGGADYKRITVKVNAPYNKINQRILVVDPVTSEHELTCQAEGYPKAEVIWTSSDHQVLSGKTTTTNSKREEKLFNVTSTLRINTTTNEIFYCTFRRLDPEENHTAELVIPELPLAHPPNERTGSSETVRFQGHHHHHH
How it was run: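 Readout: time-resolved FRET between Eu cryptate-labeled anti-Ig (1 nM final) and APC-labeled anti-His (20 nM final) antibodies. These detect interaction of Fc-fused PD-1 with His-tagged human PD-L1 in dPBS containing 0.1% BSA and 0.05% Tween-20.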

[1] = target: T2, LK35.2-hPD-L1 cells / PE-labeled PD-1-Ig (Homo sapiens, UniProt Q9NZQ7); experiment: LK35.2-hPD-L1 cell binding high-content screening assay; format: cell-based; conditions: cell line of CBA not given (LK35.2-hPD-L1 or 293T-hPD-L1)
T2 construct: expressed in transfected cells; host or cells: LK35.2 mouse B cell line
T2 sequence (Q9NZQ7 19-290): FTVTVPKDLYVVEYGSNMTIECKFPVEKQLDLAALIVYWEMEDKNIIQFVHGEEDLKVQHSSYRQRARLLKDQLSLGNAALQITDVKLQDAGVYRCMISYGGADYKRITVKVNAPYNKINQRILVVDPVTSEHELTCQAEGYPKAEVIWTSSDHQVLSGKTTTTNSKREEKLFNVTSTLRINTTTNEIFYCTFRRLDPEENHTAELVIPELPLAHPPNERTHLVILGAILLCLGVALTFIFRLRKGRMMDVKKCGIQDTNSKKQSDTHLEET
How it was run: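 Mouse LK35.2 B cells stably overexpressing human PD-L1 were cultured overnight in RPMI with 10% FCS, then given compound and PE-labeled human PD-1-Ig (1 nM final) for 1 h at 37 °C. After three dPBS washes, bound fluorescence was quantified by high-content imaging.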

[2] = cluster symbol, read-out: HTRF IC50 cluster
[3] = cluster symbol, read-out: CBA IC50 cluster

Compound	pIC50 (Human PD-L1/PD-1; read-out: HTRF IC50 value)	pIC50 ([1]; read-out: CBA IC50 value)	pIC50 (Human PD-L1/PD-1; [2])	pIC50 [1, 3]
CCCC[C@H]1C(=O)N(C)CC(=O)N[C@@H](CC(=O)O)C(=O)N[C@@H](C(C)C)C(=O)N(C)[C@@H](Cc2ccccc2)C(=O)N[C@@H](Cc2ccc(O)cc2)C(=O)N(C)CC(=O)N[C@@H](Cc2c[nH]c3ccccc23)C(=O)N[C@@H](Cc2c(F)c(F)c(F)c(F)c2F)C(=O)N[C@@H](CC(C)C)C(=O)N[C@H](C(=O)NCC(N)=O)CSCC(=O)N[C@@H](Cc2ccccc2)C(=O)N(C)[C@@H](Cc2ccccc2)C(=O)N1C [Example 3080] ({CH2CO}-F[NMeF][NMeNle][Sar]DV[NMeF]Y[Sar]W[Phe(F5)]LCG-NH2; thioether N-13)	< 5.00	< 5.00	–	–
CCCC[C@H]1C(=O)N(C)CC(=O)N[C@@H](CC(=O)O)C(=O)N[C@@H](C(C)C)C(=O)N(C)[C@@H](Cc2ccccc2)C(=O)N[C@@H](Cc2ccc(O)cc2)C(=O)N(C)CC(=O)N[C@@H](Cc2c[nH]c3ccccc23)C(=O)N[C@@H](Cc2ccc(O)cc2)C(=O)N[C@@H](CC(C)C)C(=O)N[C@H](C(=O)NCC(N)=O)CSCC(=O)N[C@@H](Cc2ccc(OC)cc2)C(=O)N(C)[C@@H](Cc2ccccc2)C(=O)N1C [Example 3089] ({CH2CO}-Y(Me)[NMeF][NMeNle][Sar]DV[NMeF]Y[Sar]WYLCG-NH2; thioether N-13)	–	–	< 7.52	< 7.13
CCCC[C@H]1C(=O)N(C)CC(=O)N[C@@H](CC(=O)O)C(=O)N[C@@H](C(C)C)C(=O)N(C)[C@@H](Cc2ccccc2)C(=O)N[C@@H](Cc2ccc(O)cc2)C(=O)N(C)CC(=O)N[C@@H](Cc2c[nH]c3ccccc23)C(=O)N[C@@H](Cc2ccc(O)cc2)C(=O)N[C@@H](CC(C)C)C(=O)N[C@H](C(=O)NCC(N)=O)CSCC(=O)N[C@@H](Cc2c[nH]c3ccccc23)C(=O)N(C)[C@@H](Cc2ccccc2)C(=O)N1C [Example 3090] (HELM PEPTIDE1{[O=C(C[*:3])[*:2]].W.[meF].[CCCC[C@@H](C(=O)[*:2])N(C)[*:1]].[Sar].D.V.[meF].Y.[Sar].W.Y.L.C.G.[am]}$PEPTIDE1,PEPTIDE1,1:R3-14:R3$$$V2.0)	–	–	< 7.52	< 7.13
CCCC[C@H]1C(=O)N(C)CC(=O)N[C@@H](CC(=O)O)C(=O)N[C@@H](C(C)C)C(=O)N(C)[C@@H](Cc2ccccc2)C(=O)N[C@@H](Cc2ccc(O)cc2)C(=O)N(C)CC(=O)N[C@@H](Cc2c[nH]c3ccccc23)C(=O)N[C@@H](Cc2ccc(O)cc2)C(=O)N[C@@H](CC(C)C)C(=O)N[C@H](C(=O)NCC(N)=O)CSCC(=O)N[C@@H](Cc2cnc[nH]2)C(=O)N(C)[C@@H](Cc2ccccc2)C(=O)N1C [Example 3091] (HELM PEPTIDE1{[O=C(C[*:3])[*:2]].H.[meF].[CCCC[C@@H](C(=O)[*:2])N(C)[*:1]].[Sar].D.V.[meF].Y.[Sar].W.Y.L.C.G.[am]}$PEPTIDE1,PEPTIDE1,1:R3-14:R3$$$V2.0)	–	–	< 7.52	< 7.13
CCCC[C@H]1C(=O)N(C)CC(=O)N[C@@H](CC(=O)O)C(=O)N[C@@H](C(C)C)C(=O)N(C)[C@@H](Cc2ccccc2)C(=O)N[C@@H](Cc2ccc(O)cc2)C(=O)N(C)CC(=O)N[C@@H](Cc2c[nH]c3ccccc23)C(=O)N[C@@H](Cc2ccc(O)cc2)C(=O)N[C@@H](CC(C)C)C(=O)N[C@H](C(=O)NCC(N)=O)CSCC(=O)N[C@@H](Cc2cscn2)C(=O)N(C)[C@@H](Cc2ccccc2)C(=O)N1C [Example 3092] ({CH2CO}-[Ala(4-thiazolyl)][NMeF][NMeNle][Sar]DV[NMeF]Y[Sar]WYLCG-NH2; thioether N-13)	–	–	< 7.52	< 7.13
CCCC[C@H]1C(=O)N(C)CC(=O)N[C@@H](CC(=O)O)C(=O)N[C@@H](C(C)C)C(=O)N(C)[C@@H](Cc2ccccc2)C(=O)N[C@@H](Cc2ccc(O)cc2)C(=O)N(C)CC(=O)N[C@@H](Cc2c[nH]c3ccccc23)C(=O)N[C@@H](Cc2ccc(O)cc2)C(=O)N[C@@H](CC(C)C)C(=O)N[C@H](C(=O)NCC(N)=O)CSCC(=O)N[C@@H](Cc2ccc(C(F)(F)F)cc2)C(=O)N(C)[C@@H](Cc2ccccc2)C(=O)N1C [Example 3093] ({CH2CO}-[Phe(4-CF3)][NMeF][NMeNle][Sar]DV[NMeF]Y[Sar]WYLCG-NH2; thioether N-13)	–	–	< 7.52	7.14 to 8.32

Results, then the compound that gave them:

pIC50 (Human PD-L1/PD-1; read-out: HTRF IC50 value)	pIC50 ([1]; read-out: CBA IC50 value)	pIC50 (Human PD-L1/PD-1; [2])	pIC50 [1, 3]	Compound
–	–	< 7.52	7.14 to 8.32	CCCC[C@H]1C(=O)N(C)CC(=O)N[C@@H](CC(=O)O)C(=O)N[C@@H](C(C)C)C(=O)N(C)[C@@H](Cc2ccccc2)C(=O)N[C@@H](Cc2ccc(O)cc2)C(=O)N(C)CC(=O)N[C@@H](Cc2c[nH]c3ccccc23)C(=O)N[C@@H](Cc2ccc(O)cc2)C(=O)N[C@@H](CC(C)C)C(=O)N[C@H](C(=O)NCC(N)=O)CSCC(=O)N[C@@H](Cc2ccc(Br)cc2)C(=O)N(C)[C@@H](Cc2ccccc2)C(=O)N1C [Example 3081] ({CH2CO}-[Phe(4-Br)][NMeF][NMeNle][Sar]DV[NMeF]Y[Sar]WYLCG-NH2; thioether N-13)
–	–	< 7.52	< 7.13	CCCC[C@H]1C(=O)N(C)CC(=O)N[C@@H](CC(=O)O)C(=O)N[C@@H](C(C)C)C(=O)N(C)[C@@H](Cc2ccccc2)C(=O)N[C@@H](Cc2ccc(O)cc2)C(=O)N(C)CC(=O)N[C@@H](Cc2c[nH]c3ccccc23)C(=O)N[C@@H](Cc2ccc(O)cc2)C(=O)N[C@@H](CC(C)C)C(=O)N[C@H](C(=O)NCC(N)=O)CSCC(=O)N[C@@H](CCc2ccccc2)C(=O)N(C)[C@@H](Cc2ccccc2)C(=O)N1C [Example 3082] ({CH2CO}-[hPhe][NMeF][NMeNle][Sar]DV[NMeF]Y[Sar]WYLCG-NH2; thioether N-13)
–	–	8.17 to 9.41	8.33 to 9.80	CCCC[C@H]1C(=O)N(C)CC(=O)N[C@@H](CC(=O)O)C(=O)N[C@@H](C(C)C)C(=O)N(C)[C@@H](Cc2ccccc2)C(=O)N[C@@H](Cc2ccc(O)cc2)C(=O)N(C)CC(=O)N[C@@H](Cc2c[nH]c3ccccc23)C(=O)N[C@@H](Cc2ccc(O)cc2)C(=O)N[C@@H](CC(C)C)C(=O)N[C@H](C(=O)NCC(N)=O)CSCC(=O)N[C@@H](Cc2cccc(Cl)c2)C(=O)N(C)[C@@H](Cc2ccccc2)C(=O)N1C [Example 3086] ({CH2CO}-[Phe(3-Cl)][NMeF][NMeNle][Sar]DV[NMeF]Y[Sar]WYLCG-NH2; thioether N-13)
–	–	< 7.52	< 7.13	CCCC[C@H]1C(=O)N(C)CC(=O)N[C@@H](CC(=O)O)C(=O)N[C@@H](C(C)C)C(=O)N(C)[C@@H](Cc2ccccc2)C(=O)N[C@@H](Cc2ccc(O)cc2)C(=O)N(C)CC(=O)N[C@@H](Cc2c[nH]c3ccccc23)C(=O)N[C@@H](Cc2ccc(O)cc2)C(=O)N[C@@H](CC(C)C)C(=O)N[C@H](C(=O)NCC(N)=O)C(C)(C)SCC(=O)N[C@@H](Cc2ccccc2)C(=O)N(C)[C@@H](Cc2ccccc2)C(=O)N1C [Example 3087] (HELM PEPTIDE1{[O=C(C[*:3])[*:2]].F.[meF].[CCCC[C@@H](C(=O)[*:2])N(C)[*:1]].[Sar].D.V.[meF].Y.[Sar].W.Y.L.[Pen].G.[am]}$PEPTIDE1,PEPTIDE1,1:R3-14:R3$$$V2.0)
–	–	7.52 to 8.17	7.14 to 8.32	CCCC[C@H]1C(=O)N(C)CC(=O)N[C@@H](CC(=O)O)C(=O)N[C@@H](C(C)C)C(=O)N(C)[C@@H](Cc2ccccc2)C(=O)N[C@@H](Cc2ccc(O)cc2)C(=O)N(C)CC(=O)N[C@@H](Cc2c[nH]c3ccccc23)C(=O)N[C@@H](Cc2ccc(O)cc2)C(=O)N[C@@H](CC(C)C)C(=O)N[C@H](C(=O)NCC(N)=O)CSCC(=O)N[C@@H](Cc2ccc(C)cc2)C(=O)N(C)[C@@H](Cc2ccccc2)C(=O)N1C [Example 3094] ({CH2CO}-[Phe(4-Me)][NMeF][NMeNle][Sar]DV[NMeF]Y[Sar]WYLCG-NH2; thioether N-13)
–	–	7.52 to 8.17	7.14 to 8.32	CCCC[C@H]1C(=O)N(C)CC(=O)N[C@@H](CC(=O)O)C(=O)N[C@@H](C(C)C)C(=O)N(C)[C@@H](Cc2ccccc2)C(=O)N[C@@H](Cc2ccc(O)cc2)C(=O)N(C)CC(=O)N[C@@H](Cc2c[nH]c3ccccc23)C(=O)N[C@@H](Cc2ccc(O)cc2)C(=O)N[C@@H](CC(C)C)C(=O)N[C@H](C(=O)NCC(N)=O)CSCC(=O)N[C@@H](Cc2cccc(OC)c2)C(=O)N(C)[C@@H](Cc2ccccc2)C(=O)N1C [Example 3095] ({CH2CO}-[Phe(3-OMe)][NMeF][NMeNle][Sar]DV[NMeF]Y[Sar]WYLCG-NH2; thioether N-13)
–	–	7.52 to 8.17	7.14 to 8.32	CCCC[C@H]1C(=O)N(C)CC(=O)N[C@@H](CC(=O)O)C(=O)N[C@@H](C(C)C)C(=O)N(C)[C@@H](Cc2ccccc2)C(=O)N[C@@H](Cc2ccc(O)cc2)C(=O)N(C)CC(=O)N[C@@H](Cc2c[nH]c3ccccc23)C(=O)N[C@@H](Cc2ccc(O)cc2)C(=O)N[C@@H](CC2CCCCC2)C(=O)N[C@H](C(=O)NCC(N)=O)CSCC(=O)N[C@@H](Cc2ccccc2)C(=O)N(C)[C@@H](Cc2ccccc2)C(=O)N1C [Example 3096] (HELM PEPTIDE1{[O=C(C[*:3])[*:2]].F.[meF].[CCCC[C@@H](C(=O)[*:2])N(C)[*:1]].[Sar].D.V.[meF].Y.[Sar].W.Y.[Cha].C.G.[am]}$PEPTIDE1,PEPTIDE1,1:R3-14:R3$$$V2.0)
–	–	7.52 to 8.17	7.14 to 8.32	CCCC[C@@H]1NC(=O)[C@H](Cc2ccc(O)cc2)NC(=O)[C@H](Cc2c[nH]c3ccccc23)NC(=O)CN(C)C(=O)[C@H](Cc2ccc(O)cc2)NC(=O)[C@H](Cc2ccccc2)N(C)C(=O)[C@H](C(C)C)NC(=O)[C@H](CC(=O)O)NC(=O)CN(C)C(=O)[C@H](CCCC)N(C)C(=O)[C@H](Cc2ccccc2)N(C)C(=O)[C@H](Cc2ccccc2)NC(=O)CSC[C@@H](C(=O)NCC(N)=O)NC1=O [Example 3097] (HELM PEPTIDE1{[O=C(C[*:3])[*:2]].F.[meF].[CCCC[C@@H](C(=O)[*:2])N(C)[*:1]].[Sar].D.V.[meF].Y.[Sar].W.Y.[Nle].C.G.[am]}$PEPTIDE1,PEPTIDE1,1:R3-14:R3$$$V2.0)
